The record followed here is ChEMBL document CHEMBL1144111, “Strong antinociceptive effect of incarvillateine, a novel monoterpene alkaloid from Incarvillea sinensis” (1999).

In test [1] the test system is Mus musculus. Kind of test: Antinociceptive activity against formalin-induced pain in ip dosed ddY mouse assessed as reduction of paw licking response during neurogenic phase pretreated for 10 mins before formalin challenge. It counts as functional.
Test [2] has as its system Mus musculus. The test is described as follows: Antinociceptive activity against formalin-induced pain in ip dosed ddY mouse assessed as reduction of paw licking response during inflammatory phase pretreated for 10 mins before formalin challenge. Format: functional.
In test [3] the test system is Mus musculus. The test is described as follows: Antinociceptive activity against formalin-induced pain in ip dosed ddY mouse assessed as reduction of paw licking response during neurogenic phase pretreated for 10 mins before formalin challenge relative to morphine. Format: functional.
The test system of test [4] is Mus musculus. Kind of test: Antinociceptive activity against formalin-induced pain in ip dosed ddY mouse assessed as reduction of paw licking response during inflammatory phase pretreated for 10 mins before formalin challenge relative to morphine. It counts as functional.
Test [5] relates to Mus musculus. The test is described as follows: Antinociceptive activity against formalin-induced pain in ddY mouse assessed as reduction of paw licking response during neurogenic phase at 20 mg/kg, ip pretreated for 10 mins before formalin challenge in presence of Naloxone. It counts as functional, organism-based. More on the design: dose 20 mg/kg.

Activity calls are given as the source filed them. The rule behind the calls is not given here.

What is called ED50 is the midpoint of the dose-response relation. Turning to `COc1cc([C@H]2[C@H](C(=O)O[C@@H]3C[C@@H]4[C@@H](CN(C)C[C@@H]4C)[C@@H]3C)[C@H](c3ccc(O)c(OC)c3)[C@H]2C(=O)O[C@@H]2C[C@@H]3[C@@H](CN(C)C[C@@H]3C)[C@@H]2C)ccc1O` [INCARVILLATEINE], the Activity result in test [1] is “Dose-dependent effect”; in test [2], “Dose-dependent effect”; in test [3], 1.06; in test [4], 1.33. For the same compound, the ED50 in test [1] was determined as 17.4 µmol/kg; in test [2] it was 7.8 µmol/kg.

For the compound `CN1CC[C@]23c4c5ccc(O)c4O[C@H]2[C@@H](O)C=C[C@H]3[C@H]1C5` [MORPHINE], the figures for the ED50 in test [1] and in test [2] were 18.4 µmol/kg and 10.4 µmol/kg, respectively. Further, the outcome in test [5] was inactive.
